This passage reports IC50 results from ChEMBL document CHEMBL1201862, “PubChem BioAssay data set” (2004).

The IC50 is the concentration at which inhibition is half-maximal.

The assay concerns the target Envelope glycoprotein gp160 (Human immunodeficiency virus 1, UniProt Q6QLK5). The assay can be described thus: cell-free HIV fusion peptide-binding blockers – biochemical, uHTS, fluorescence dequenching, […] (AID 1986).

Activity calls are given as the source filed them. No stated cut-off is given here; in the data, actives have a measured IC50 and inactives only a lower limit.

Chain of Envelope glycoprotein gp160 (Q6QLK5 whole entry, the tested form may be a part): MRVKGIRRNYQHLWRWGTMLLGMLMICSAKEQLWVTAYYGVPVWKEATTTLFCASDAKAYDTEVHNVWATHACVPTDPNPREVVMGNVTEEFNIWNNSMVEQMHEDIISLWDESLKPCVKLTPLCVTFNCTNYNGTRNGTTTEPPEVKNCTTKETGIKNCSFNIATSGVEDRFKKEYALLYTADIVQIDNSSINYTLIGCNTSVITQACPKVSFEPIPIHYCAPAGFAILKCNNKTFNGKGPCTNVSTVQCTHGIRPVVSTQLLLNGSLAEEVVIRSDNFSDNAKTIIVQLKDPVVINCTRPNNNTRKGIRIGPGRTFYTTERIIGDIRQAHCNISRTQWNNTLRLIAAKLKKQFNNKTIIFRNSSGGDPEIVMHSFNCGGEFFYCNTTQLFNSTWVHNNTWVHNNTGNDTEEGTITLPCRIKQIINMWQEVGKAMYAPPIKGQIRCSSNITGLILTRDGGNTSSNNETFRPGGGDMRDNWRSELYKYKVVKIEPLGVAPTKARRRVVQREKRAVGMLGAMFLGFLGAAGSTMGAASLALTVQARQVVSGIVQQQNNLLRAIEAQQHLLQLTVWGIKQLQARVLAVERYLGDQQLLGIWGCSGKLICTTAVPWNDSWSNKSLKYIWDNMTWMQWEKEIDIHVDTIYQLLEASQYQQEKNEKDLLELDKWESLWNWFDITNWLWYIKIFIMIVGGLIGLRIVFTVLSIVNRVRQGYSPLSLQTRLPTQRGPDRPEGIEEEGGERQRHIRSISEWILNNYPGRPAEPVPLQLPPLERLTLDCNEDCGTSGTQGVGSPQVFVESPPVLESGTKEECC

`COc1cc(/C=C2\SC(=O)N(c3ccccc3Cl)C2=O)cc([N+](=O)[O-])c1O`: the IC50 is 24.7 µM (active).
